US20250129430A1, “HIGH ATP-AFFINITY PROTEIN AS THERAPEUTIC TARGET FOR INTRACTABLE CANCER MOLECULAR SUBTYPES AND INHIBITOR THEREOF” (VeraVerse Co., Ltd., priority 2021, published 2025)

How the values were obtained:
Assay in all cases: Cell viability drug screen, 12-point dose-response AUC
Format in all cases: cell-based, human
FU97 = test system: FU97; design: Average Area Under the Viability Curve (AUC), AUC norm value: scale not given here; settings: FU97 cells, 72 hours
Method: (§1) Cells cultured for cell-based drug assay were inoculated into a 96-well white optical plate (Corning) at 5×10^3 cells per well. After 24 hours after inoculation, a 2.5 MJT (primary screen) or a half-log 12-serial diluent (secondary screen) of the pharmacological compound contained in DMSO is added to the cells with a robot using a BioMek FXp liquid processor (Beckman) to add to the cells at 50 mM. The final drug concentration in the 5 ns range and the DMSO specification control (0.5%) were calculated. The cells were then further incubated at 37° C. in a 5% CO2 incubator for 72 hours prior to measuring cell viability using the extra-GLO assay kit (Promega). The luminescent properties were measured after 15 min incubation at room temperature using a plate stacker equipped with a plate stacker. The normalized viability for the DMSO-based control was measured to generate a cell line-specific 12-point dose-response curve for each pharmacological compound, and then the area under the curve (AUC) was calculated using a trapezoidal method.

SNU601 = SNU601 cells, 72 hours
Method: (§2) An FDA-approved small-molecule pharmacological compound (#L1300) and an anticancer compound for research (#L2000) were purchased from Selecckchem and a 10 mM solution was prepared in DMSO. A total of 1,345 compounds were tested the cell viability of the seven EMT gastric cancer cell lines.
as §1, with “method. […] The results of the repeated experiments were averaged to generate AUC values for each cell line for each compound.” for “method.”

AGS = settings: 72 hours
Method: as §2
as §1, with “method. […] The results of the repeated experiments were averaged to generate AUC values for each cell line for each compound.” for “method.”

SK4 = settings: 72 hours
Method: as §2
as §1, with “method. […] The results of the repeated experiments were averaged to generate AUC values for each cell line for each compound.” for “method.”

NCC24 = NCC24 cells, 72 hours
Method: as §2
as §1, with “method. […] The results of the repeated experiments were averaged to generate AUC values for each cell line for each compound.” for “method.”

MKN45 = settings: 72 hours
Method: as §2
as §1, with “method. […] The results of the repeated experiments were averaged to generate AUC values for each cell line for each compound.” for “method.”

OCUM1 = OCUM1 cells, 72 hours
Method: as §2
as §1, with “method. […] The results of the repeated experiments were averaged to generate AUC values for each cell line for each compound.” for “method.”

MKN74 = MKN74 cells, 72 hours
Method: as §2
as §1, with “method. […] The results of the repeated experiments were averaged to generate AUC values for each cell line for each compound.” for “method.”

SNU620 = SNU620 cells, 72 hours
Method: as §2
as §1, with “method. […] The results of the repeated experiments were averaged to generate AUC values for each cell line for each compound.” for “method.”

MKN28 = MKN28 cells, 72 hours
Method: as §2
as §1, with “method. […] The results of the repeated experiments were averaged to generate AUC values for each cell line for each compound.” for “method.”

SNU16 = SNU16 cells, 72 hours
Method: as §2
as §1, with “method. […] The results of the repeated experiments were averaged to generate AUC values for each cell line for each compound.” for “method.”

MKN1 = MKN1 cells, 72 hours
Method: as §2
as §1, with “method. […] The results of the repeated experiments were averaged to generate AUC values for each cell line for each compound.” for “method.”

SNU638 = SNU638 cells, 72 hours
Method: as §2
as §1, with “method. […] The results of the repeated experiments were averaged to generate AUC values for each cell line for each compound.” for “method.”

Hs746T = settings: 72 hours
Method: as §2
as §1, with “method. […] The results of the repeated experiments were averaged to generate AUC values for each cell line for each compound.” for “method.”

NCC59 = NCC59 cells, 72 hours
Method: as §2
as §1, with “method. […] The results of the repeated experiments were averaged to generate AUC values for each cell line for each compound.” for “method.”

NCI_N87 = NCI_N87 cells, 72 hours
Method: as §2
as §1, with “method. […] The results of the repeated experiments were averaged to generate AUC values for each cell line for each compound.” for “method.”

YCC3 = YCC3 cells, 72 hours
Method: as §2
as §1, with “method. […] The results of the repeated experiments were averaged to generate AUC values for each cell line for each compound.” for “method.”

SNU1967 = SNU1967 cells, 72 hours
Method: as §2
as §1, with “method. […] The results of the repeated experiments were averaged to generate AUC values for each cell line for each compound.” for “method.”

YCC2 = YCC2 cells, 72 hours
Method: as §2
as §1, with “method. […] The results of the repeated experiments were averaged to generate AUC values for each cell line for each compound.” for “method.”

KATO3 = KATO3 cells, 72 hours
Method: as §2
as §1, with “method. […] The results of the repeated experiments were averaged to generate AUC values for each cell line for each compound.” for “method.”

SNU719 = SNU719 cells, 72 hours
Method: as §2
as §1, with “method. […] The results of the repeated experiments were averaged to generate AUC values for each cell line for each compound.” for “method.”

SNU216 = settings: 72 hours
Method: as §2
as §1, with “method. […] The results of the repeated experiments were averaged to generate AUC values for each cell line for each compound.” for “method.”

YCC11 = settings: 72 hours
Method: as §2
as §1, with “method. […] The results of the repeated experiments were averaged to generate AUC values for each cell line for each compound.” for “method.”

SNU668 = settings: 72 hours
Method: as §2
as §1, with “method. […] The results of the repeated experiments were averaged to generate AUC values for each cell line for each compound.” for “method.”

SNU484 = settings: 72 hours
Method: as §2
as §1, with “method. […] The results of the repeated experiments were averaged to generate AUC values for each cell line for each compound.” for “method.”

SNU1 = SNU1 cells, 72 hours
Method: as §2
as §1, with “method. […] The results of the repeated experiments were averaged to generate AUC values for each cell line for each compound.” for “method.”

SNU1750 = settings: 72 hours
Method: as §2
as §1, with “method. […] The results of the repeated experiments were averaged to generate AUC values for each cell line for each compound.” for “method.”

NCC19 = NCC19 cells, 72 hours
Method: as §2
as §1, with “method. […] The results of the repeated experiments were averaged to generate AUC values for each cell line for each compound.” for “method.”

NCC20 = NCC20 cells, 72 hours
Method: as §2
as §1, with “method. […] The results of the repeated experiments were averaged to generate AUC values for each cell line for each compound.” for “method.”

CCCCc1nc2cc(/C=C/C(=O)NO)ccc2n1CCN(CC)CC [SB939 (Pracinostat), Pracinostat]
area under the viability curve (AUC), normalized (FU97; 12-point dose-response): 0 | area under the viability curve (AUC), normalized (SNU601; 12-point dose-response): 0.1827 | area under the viability curve (AUC), normalized (AGS; AGS cells, 12-point dose-response): −1.799 | area under the viability curve (AUC), normalized (SK4; SK4 cells, 12-point dose-response): −0.454 | area under the viability curve (AUC), normalized (NCC24; 12-point dose-response): −1.137 | area under the viability curve (AUC), normalized (MKN45; MKN45 cells, 12-point dose-response): 1.672 | area under the viability curve (AUC), normalized (OCUM1; 12-point dose-response): 0.7195 | area under the viability curve (AUC), normalized (MKN74; 12-point dose-response): 0.3806 | area under the viability curve (AUC), normalized (SNU620; 12-point dose-response): −1.199 | area under the viability curve (AUC), normalized (MKN28; 12-point dose-response): −0.5866 | area under the viability curve (AUC), normalized (SNU16; 12-point dose-response): −1.067 | area under the viability curve (AUC), normalized (MKN1; 12-point dose-response): 0.232 | area under the viability curve (AUC), normalized (SNU638; 12-point dose-response): −0.278 | area under the viability curve (AUC), normalized (Hs746T; Hs746T cells, 12-point dose-response): 0.7098 | area under the viability curve (AUC), normalized (NCC59; 12-point dose-response): 1.053 | area under the viability curve (AUC), normalized (NCI_N87; 12-point dose-response): −0.6724 | area under the viability curve (AUC), normalized (YCC3; 12-point dose-response): 1.403 | area under the viability curve (AUC), normalized (SNU1967; 12-point dose-response): −0.4581 | area under the viability curve (AUC), normalized (YCC2; 12-point dose-response): −0.02045 | area under the viability curve (AUC), normalized (KATO3; 12-point dose-response): 0.2173 | area under the viability curve (AUC), normalized (SNU719; 12-point dose-response): 2.187 | area under the viability curve (AUC), normalized (SNU216; SNU216 cells, 12-point dose-response): 0.6217 | area under the viability curve (AUC), normalized (YCC11; YCC11 cells, 12-point dose-response): −0.768 | area under the viability curve (AUC), normalized (SNU668; SNU668 cells, 12-point dose-response): 0.519 | area under the viability curve (AUC), normalized (SNU484; SNU484 cells, 12-point dose-response): 0.208 | area under the viability curve (AUC), normalized (SNU1; 12-point dose-response): −1.4 | area under the viability curve (AUC), normalized (SNU1750; SNU1750 cells, 12-point dose-response): −1.156 | area under the viability curve (AUC), normalized (NCC19; 12-point dose-response): 0.6538 | area under the viability curve (AUC), normalized (NCC20; 12-point dose-response): −0.08068

O=C(Nc1ccc([N+](=O)[O-])cc1Cl)c1cc(Cl)ccc1O [Niclosamide (Niclocide), Niclosamide]
Average Area Under the Viability Curve (AUC), AUC norm value (FU97): −1.793 | Average Area Under the Viability Curve (AUC), AUC norm value (SNU601): 4.911 | Average Area Under the Viability Curve (AUC), AUC norm value (AGS; AGS cells (non-SEM subtype)): −1.094 | Average Area Under the Viability Curve (AUC), AUC norm value (SK4; SK4 cells (SEM subtype)): −1.038 | Average Area Under the Viability Curve (AUC), AUC norm value (NCC24): 0.68 | Average Area Under the Viability Curve (AUC), AUC norm value (MKN45; MKN45 cells (non-SEM subtype)): 1.159 | Average Area Under the Viability Curve (AUC), AUC norm value (OCUM1): 0 | Average Area Under the Viability Curve (AUC), AUC norm value (MKN74): −1.62 | Average Area Under the Viability Curve (AUC), AUC norm value (SNU620): 0.8518 | Average Area Under the Viability Curve (AUC), AUC norm value (MKN28): −0.3809 | Average Area Under the Viability Curve (AUC), AUC norm value (SNU16): −3.062 | Average Area Under the Viability Curve (AUC), AUC norm value (MKN1): 0.3991 | Average Area Under the Viability Curve (AUC), AUC norm value (SNU638): −1.105 | Average Area Under the Viability Curve (AUC), AUC norm value (Hs746T; Hs746T cells (SEM subtype)): −0.6858 | Average Area Under the Viability Curve (AUC), AUC norm value (NCC59): 1.141 | Average Area Under the Viability Curve (AUC), AUC norm value (NCI_N87): 2.802 | Average Area Under the Viability Curve (AUC), AUC norm value (YCC3): 1.8253 | Average Area Under the Viability Curve (AUC), AUC norm value (SNU1967): 0.1419 | Average Area Under the Viability Curve (AUC), AUC norm value (YCC2): 0.6628 | Average Area Under the Viability Curve (AUC), AUC norm value (KATO3): 1.591 | Average Area Under the Viability Curve (AUC), AUC norm value (SNU719): 2.503 | Average Area Under the Viability Curve (AUC), AUC norm value (SNU216; SNU216 cells (non-SEM subtype)): −0.5185 | Average Area Under the Viability Curve (AUC), AUC norm value (YCC11; YCC11 cells (SEM subtype)): −0.8753 | Average Area Under the Viability Curve (AUC), AUC norm value (SNU668; SNU668 cells (SEM subtype)): −0.9084 | Average Area Under the Viability Curve (AUC), AUC norm value (SNU484; SNU484 cells (SEM subtype)): −1.164 | Average Area Under the Viability Curve (AUC), AUC norm value (SNU1): −1.673 | Average Area Under the Viability Curve (AUC), AUC norm value (SNU1750; SNU1750 cells (SEM subtype)): −0.8987 | Average Area Under the Viability Curve (AUC), AUC norm value (NCC19): 2.917 | Average Area Under the Viability Curve (AUC), AUC norm value (NCC20): 0.2177
